Target: Aβ42 (Homo sapiens, UniProt P05067)
Assay: Th-T (thioflavin-T) assay of Aβ42 aggregation
Type: biochemical
Settings: for Th-T fluorescence, mean of three wells: Aβ42 aggregation time course

Sequence of Aβ42 (P05067 672-713): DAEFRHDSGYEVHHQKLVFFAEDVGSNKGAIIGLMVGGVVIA

C=C1CCC2C(C)(CCC=C(C)C)C(O)CCC2(C)C1Cc1c(OC)oc(CO)c(C(=O)OC)c1=O (centres unmarked) [Compound 13]
first Th-T assay result (Aβ42 (10 μM) ± DPPs (20 μM), room temperature): clearly delayed nuclei formation of Aβ42 | Th-T fluorescence, mean of three wells (reading M117): 1.0387 | Th-T fluorescence, mean of three wells (reading M118): 1.037 | Th-T fluorescence, mean of three wells (reading M119): 1.04 | Th-T fluorescence, mean of three wells (reading M120): 1.034 | Th-T fluorescence, mean of three wells (reading M121): 1.036 | Th-T fluorescence, mean of three wells (reading M122): 1.039 | Th-T fluorescence, mean of three wells (reading M123): 1.034 | Th-T fluorescence, mean of three wells (reading M124): 1.036 | Th-T fluorescence, mean of three wells (reading M125): 1.037 | Th-T fluorescence, mean of three wells (reading M126): 1.037 | Th-T fluorescence, mean of three wells (reading M127): 1.0394 | Th-T fluorescence, mean of three wells (reading M128): 1.038 | Th-T fluorescence, mean of three wells (reading M129): 1.038 | Th-T fluorescence, mean of three wells (reading M130): 1.033 | nucleation phase of Aβ42 delayed until (Th-T fluorescence of Aβ42 alone began to increase after 4 h): 6 h | Th-T fluorescence, mean of three wells (Fig. 7a) (column suffix _10, measurement M19): 0.2324 | Th-T fluorescence, mean of three wells (Fig. 7a) (column suffix _10, measurement M20): 0.2323 | Th-T fluorescence, mean of three wells (Fig. 7a) (column suffix _10, measurement M21): 0.2394 | Th-T fluorescence, mean of three wells (Fig. 7a) (column suffix _10, measurement M22): 0.2441 | Th-T fluorescence, mean of three wells (Fig. 7a) (column suffix _10, measurement M23): 0.249 | Th-T fluorescence, mean of three wells (Fig. 7a) (column suffix _10, measurement M24): 0.2631 | Th-T fluorescence, mean of three wells (Fig. 7a) (column suffix _10, measurement M25): 0.2779 | Th-T fluorescence, mean of three wells (Fig. 7a) (column suffix _10, measurement M26): 0.3045 | Th-T fluorescence, mean of three wells (Fig. 7a) (column suffix _10, measurement M27): 0.3354 | Th-T fluorescence, mean of three wells (Fig. 7a) (column suffix _10, measurement M28): 0.3683 | Th-T fluorescence, mean of three wells (Fig. 7a) (column suffix _10, measurement M29): 0.4093 | Th-T fluorescence, mean of three wells (Fig. 7a) (column suffix _10, measurement M30): 0.4628 | Th-T assay signal, mean of three wells (Fig. 7a) (column suffix _10, reading M1): 0.2437 | Th-T assay signal, mean of three wells (Fig. 7a) (column suffix _10, reading M2): 0.2496 | Th-T assay signal, mean of three wells (Fig. 7a) (column suffix _10, reading M3): 0.25 | Th-T assay signal, mean of three wells (Fig. 7a) (column suffix _10, reading M4): 0.2515 | Th-T assay signal, mean of three wells (Fig. 7a) (column suffix _10, reading M5): 0.2448 | Th-T assay signal, mean of three wells (Fig. 7a) (column suffix _10, reading M6): 0.2438 | Th-T assay signal, mean of three wells (Fig. 7a) (column suffix _10, reading M7): 0.2403 | Th-T assay signal, mean of three wells (Fig. 7a) (column suffix _10, reading M8): 0.2367 | Th-T assay signal, mean of three wells (Fig. 7a) (column suffix _10, reading M9): 0.231 | Th-T assay signal, mean of three wells (Fig. 7a) (column suffix _10, reading M10): 0.233 | Th-T assay signal, mean of three wells (Fig. 7a) (column suffix _10, reading M11): 0.2291 | Th-T assay signal, mean of three wells (Fig. 7a) (column suffix _10, reading M12): 0.2292 | Th-T assay signal, mean of three wells (Fig. 7a) (column suffix _10, reading M13): 0.2301 | Th-T assay signal, mean of three wells (Fig. 7a) (column suffix _10, reading M14): 0.2289 | Th-T assay signal, mean of three wells (Fig. 7a) (column suffix _10, reading M15): 0.2274 | Th-T assay signal, mean of three wells (Fig. 7a) (column suffix _10, reading M16): 0.2305 | Th-T assay signal, mean of three wells (Fig. 7a) (column suffix _10, reading M17): 0.2352 | Th-T assay signal, mean of three wells (Fig. 7a) (column suffix _10, reading M18): 0.231 | Fig. 7a Th-T reading, mean of three wells (column suffix _10, reading M85): 1.544 | Fig. 7a Th-T reading, mean of three wells (column suffix _10, reading M86): 1.5365 | Fig. 7a Th-T reading, mean of three wells (column suffix _10, reading M87): 1.543 | Fig. 7a Th-T reading, mean of three wells (column suffix _10, reading M88): 1.544 | Fig. 7a Th-T reading, mean of three wells (column suffix _10, reading M89): 1.563 | Fig. 7a Th-T reading, mean of three wells (column suffix _10, reading M90): 1.554 | Fig. 7a Th-T reading, mean of three wells (column suffix _10, reading M91): 1.5515 | Fig. 7a Th-T reading, mean of three wells (column suffix _10, reading M92): 1.553 | Fig. 7a Th-T reading, mean of three wells (column suffix _10, reading M93): 1.554 | Fig. 7a Th-T reading, mean of three wells (column suffix _10, reading M94): 1.561 | Fig. 7a Th-T reading, mean of three wells (column suffix _10, reading M95): 1.563 | Fig. 7a Th-T reading, mean of three wells (column suffix _10, reading M96): 1.547 | Fig. 7a Th-T reading, mean of three wells (column suffix _10, reading M97): 1.551 | Fig. 7a Th-T reading, mean of three wells (column suffix _10, reading M98): 1.554 | Fig. 7a Th-T reading, mean of three wells (column suffix _10, reading M99): 1.551 | Fig. 7a Th-T reading, mean of three wells (column suffix _10, reading M100): 1.555 | Fig. 7a Th-T reading, mean of three wells (column suffix _10, reading M101): 1.545 | Fig. 7a Th-T reading, mean of three wells (column suffix _10, reading M102): 1.552 | Fig. 7a Th-T reading, mean of three wells (column suffix _10, reading M103): 1.542 | Fig. 7a Th-T reading, mean of three wells (column suffix _10, reading M104): 1.5457 | Fig. 7a Th-T reading, mean of three wells (column suffix _10, reading M105): 1.553 | Fig. 7a Th-T reading, mean of three wells (column suffix _10, reading M106): 1.551 | Th-T fluorescence, mean of three wells (Fig. 7a) (column suffix _20, measurement M19): 0.1811 | Th-T fluorescence, mean of three wells (Fig. 7a) (column suffix _20, measurement M20): 0.1836 | Th-T fluorescence, mean of three wells (Fig. 7a) (column suffix _20, measurement M21): 0.1846 | Th-T fluorescence, mean of three wells (Fig. 7a) (column suffix _20, measurement M22): 0.1853 | Th-T fluorescence, mean of three wells (Fig. 7a) (column suffix _20, measurement M23): 0.1827 | Th-T fluorescence, mean of three wells (Fig. 7a) (column suffix _20, measurement M24): 0.1835 | Th-T fluorescence, mean of three wells (Fig. 7a) (column suffix _20, measurement M25): 0.1855 | Th-T fluorescence, mean of three wells (Fig. 7a) (column suffix _20, measurement M26): 0.1899 | Th-T fluorescence, mean of three wells (Fig. 7a) (column suffix _20, measurement M27): 0.1923 | Th-T fluorescence, mean of three wells (Fig. 7a) (column suffix _20, measurement M28): 0.1912 | Th-T fluorescence, mean of three wells (Fig. 7a) (column suffix _20, measurement M29): 0.1931 | Th-T assay signal, mean of three wells (Fig. 7a) (column suffix _20, reading M1): 0.2486 | Th-T assay signal, mean of three wells (Fig. 7a) (column suffix _20, reading M2): 0.2414 | Th-T assay signal, mean of three wells (Fig. 7a) (column suffix _20, reading M3): 0.2279 | Th-T assay signal, mean of three wells (Fig. 7a) (column suffix _20, reading M4): 0.2173 | Th-T assay signal, mean of three wells (Fig. 7a) (column suffix _20, reading M5): 0.206 | Th-T assay signal, mean of three wells (Fig. 7a) (column suffix _20, reading M6): 0.2044 | Th-T assay signal, mean of three wells (Fig. 7a) (column suffix _20, reading M7): 0.2009 | Th-T assay signal, mean of three wells (Fig. 7a) (column suffix _20, reading M8): 0.1963 | Th-T assay signal, mean of three wells (Fig. 7a) (column suffix _20, reading M9): 0.1897 | Th-T assay signal, mean of three wells (Fig. 7a) (column suffix _20, reading M10): 0.1909 | Th-T assay signal, mean of three wells (Fig. 7a) (column suffix _20, reading M11): 0.1894 | Th-T assay signal, mean of three wells (Fig. 7a) (column suffix _20, reading M12): 0.1902 | Th-T assay signal, mean of three wells (Fig. 7a) (column suffix _20, reading M13): 0.1854 | Th-T assay signal, mean of three wells (Fig. 7a) (column suffix _20, reading M14): 0.184 | Th-T assay signal, mean of three wells (Fig. 7a) (column suffix _20, reading M15): 0.1861 | Th-T assay signal, mean of three wells (Fig. 7a) (column suffix _20, reading M16): 0.1835 | Th-T assay signal, mean of three wells (Fig. 7a) (column suffix _20, reading M17): 0.1852 | Th-T assay signal, mean of three wells (Fig. 7a) (column suffix _20, reading M18): 0.1827 | Fig. 7a Th-T reading, mean of three wells (column suffix _20, reading M85): 1.042 | Fig. 7a Th-T reading, mean of three wells (column suffix _20, reading M86): 1.037 | Fig. 7a Th-T reading, mean of three wells (column suffix _20, reading M87): 1.045 | Fig. 7a Th-T reading, mean of three wells (column suffix _20, reading M88): 1.0511 | Fig. 7a Th-T reading, mean of three wells (column suffix _20, reading M89): 1.059 | Fig. 7a Th-T reading, mean of three wells (column suffix _20, reading M90): 1.054 | Fig. 7a Th-T reading, mean of three wells (column suffix _20, reading M91): 1.0453 | Fig. 7a Th-T reading, mean of three wells (column suffix _20, reading M92): 1.043 | Fig. 7a Th-T reading, mean of three wells (column suffix _20, reading M93): 1.047 | Fig. 7a Th-T reading, mean of three wells (column suffix _20, reading M94): 1.054 | Fig. 7a Th-T reading, mean of three wells (column suffix _20, reading M95): 1.054 | Fig. 7a Th-T reading, mean of three wells (column suffix _20, reading M96): 1.04 | Fig. 7a Th-T reading, mean of three wells (column suffix _20, reading M97): 1.041 | Fig. 7a Th-T reading, mean of three wells (column suffix _20, reading M98): 1.046 | Fig. 7a Th-T reading, mean of three wells (column suffix _20, reading M99): 1.051 | Fig. 7a Th-T reading, mean of three wells (column suffix _20, reading M100): 1.05

Reference: article PMC7156458, “Synthetic biology based construction of biological activity-related library of fungal decalin-containing diterpenoid pyrones” (Nature Communications, 2020)
